Consider 1 molecule from US20260206810A1, “NATURAL SWEETENER COMPOSITIONS AND USES THEREOF” (Firmenich SA, priority 2022, published 2026).

The data set in a line: Visual assessment of sweetener solubilization (solution aspect) at room temperature. The format is physicochemical. On the procedure:
Unless otherwise stated, the inventive compositions of the examples were prepared according to the following general procedure. Solvent A, Solvent B (or mix of solvents B) and solvent C (or mix of solvents C) were mixed using a mechanical stirrer at room temperature (22° C.) to obtain a clear one-phase liquid. A solid natural sweetener in pure form or a blend of solid natural sweeteners was then added to the transparent solvent mixture and mechanically stirred. Mechanical stirring was maintained until the complete solubilization of the sweetener(s) at room temperature was observed. Comparative compositions were prepared analogously. The tables in the following examples summarize the components used in the inventive and comparative compositions.
Comparative and inventive compositions were prepared according to Table 1 below. The solubilization of the sweetener was assessed visually as a function of time. The stability of the concentrated solution (transparency of the solution) was also assessed visually at room temperature (22° C.) as a function of time.

Values joined by “and” are separate entries in the source; they are usually repeats but may differ in a detail not shown here. Equal entries are not always repeated.

As for `C=C1C[C@@]23CC[C@H]4[C@@](C)(CCC[C@@]4(C)C(=O)O[C@@H]4O[C@H](CO)[C@@H](O)[C@H](O)[C@H]4O)[C@@H]2CC[C@]1(O[C@@H]1O[C@H](CO)[C@@H](O)[C@H](O[C@@H]2O[C@H](CO)[C@@H](O)[C@H](O)[C@H]2O)[C@H]1O[C@@H]1O[C@H](CO)[C@@H](O)[C@H](O)[C@H]1O)C3` [Reb A (99.5%), Rebaudioside A], the “Amount dispersed giving non-complete solubilization and a cloudy solution” value was 3 % wt (binary mix ethanol/water 80/20, after 1 day at room temperature (22° C.)); 2 % wt and 1 % wt (binary mix glycerol/water 80/20, after 1 day at room temperature (22° C.)); 4.6 % wt (binary mix propylene glycol/glycerol 33/66, after 2 days at room temperature (22° C.)); 4.6 % wt (binary mix propylene glycol/glycerol 50/50, after 2 days at room temperature (22° C.)); 11 % wt (binary mix propylene glycol/water 80/20, after 2 days at room temperature (22° C.)). In addition, the “Amount of sweetener that was soluble” value (binary mix propylene glycol/glycerol 33/66, room temperature (22° C.)) amounted to 2.6 % wt; the “Amount of sweetener that was soluble” value (binary mix propylene glycol/glycerol 50/50, room temperature (22° C.)) was determined as 3.8 % wt; the “Amount of sweetener that was soluble” value (binary mix propylene glycol/water 80/20, room temperature (22° C.)) is on record as 10 % wt. The “Amount of sweetener solubilized” value (glycerol/water 80/20 with 48% wt of glycerol replaced by ethanol) was 12%.
